Reference: patent US11014952B2, “Stable hydrolysis-resistant synthetic polyribosylribitolphosphate derivatives as vaccines against Haemophilus influenzae type b” (MAX-PLANCK-GESELLSCHAFT ZUR FÖRDERUNG DER WISSENSCHAFTEN …, priority 2016, dated 2021)

Key:
[1] = tested on: anti-Hib antibodies present in human reference serum; test: Glycan array analysis with Hib human reference serum; type: binding; settings: for inhibition of binding by natural Hib PRP: Hib PRP inhibitor present (FIG. 17A); for binding of anti-Hib antibodies to printed saccharide: no inhibitor (FIG. 17A)
Description: (§1) Saccharides in PBS were printed on N-Hydroxy succinimide activated glass slides (CodeLink slides, Surmodics) using an S3 microarray spotter (Scienion). Slides were incubated overnight in a humidity saturated chamber, quenched for 2 h with 100 mM ethanolamine, 50 mM sodium phosphate, pH 7.5, washed with water and dried.
(§2) For incubation, slides were blocked for 1 h with 3% (w/v) BSA-PBS, washed with PBS and water, and dried by centrifugation. A 64 well incubation grid was attached. Sera were diluted in 3% BSA-PBS, 0.1% (v/v) Tween-20, incubated at 37° C. for 15 min, and centrifuged for 2 min at 3220 rpm. Serum dilutions were applied to the slide and incubated for 1 h at room temperature. Wells were washed three times with PBS+0.1% Tween-20 (PBS-T). Secondary antibodies (anti-rabbit IgG FITC, anti-rabbit IgM AlexaFluor 647, anti-human IgG-Fc AlexaFluor 488 and IgM AlexaFluor 594) were incubated on the slides for 30 min at r.t. Wells were washed twice with PBS-T, the incubation grid was removed, and the slide washed with PBS and water. After drying by centrifugation, the slide was scanned using a GenePix 4300A (Molecular Devices) microarray reader.

[2] = tested on: antibodies raised by immunization with compound 94; test: Glycan array: binding of printed saccharides to antibodies raised by immunization with compound 94; set-up: species or system rabbit; settings: sera of rabbits immunized with conjugate 94 with and without Alhydrogel (FIG. 17C, D)
Description: Four groups with four rabbits per each group were immunized in a prime-boost regime with unadjuvanted conjugate 94 containing 5 μg saccharide 29 or conjugate 94 (containing 5 μg Hib saccharide 29) adjuvanted with Alhydrogel. The negative control group received PBS/Alhydrogel only. The positive control group received the approved vaccine ActHIB® (5 μg PRP, corresponding to half the human dose), a conjugate of native PRP to tetanus toxoid (TT). Preimmune serum and antiserum of bleeding day 21 (following two immunizations) were taken and analyzed on a glycan array. The ActHIB-specific serum was obtained after three administrations in contrast to two immunisations of the HIB analogues of the present invention.
as §1, §2
The primary immune response was assessed by glycan array screening of serum samples retrieved at day 0, day 21 and day 35. 2′-Methoxyribosylribitolphosphate dimer 19, 2′-methoxyribosylribitolphosphate dimer 24, 2′-Methoxyribosylribitolphosphate tetramer 29, 2′-deoxyribosylribitolphosphate tetramer 53 and 2′-dimethyl-aminocarbonylribosylribitolphosphate 62 as well as natural Hib PRP were printed on NHS ester-activated microarray slides. After immunization with conjugate 94 adjuvanted with Alhydrogel and without adjuvant, antibodies of the IgG and IgM subtypes against the Hib PRP derivatives 19, 24, 29, 53 and 62 as well as against the natural Hib PRP polysaccharide in all immunized rabbits were detected.

[3] = tested on: anti-Hib antibodies in rabbit typing serum; test: Glycan array analysis with rabbit typing serum; type: binding; settings: for inhibition of binding by natural Hib PRP: Hib PRP inhibitor present (FIG. 17B); for binding of anti-Hib antibodies to printed saccharide: no inhibitor (FIG. 17B)
Description: as §1, §2

[4] = Stability in basic medium (0.1 M NaOH); type: physicochemical; settings: for cleaved completely after: aqueous basic conditions as applied in Example H-1 (0.1 M NaOH)
Description: Stability study of the inventive saccharides is critical for the development of stable liquid Hib glycoconjugate vaccines. As a control we examined first the stability and cleavage of Hib polyribosylribitolphosphate capsular polysaccharide (CPS). Accordingly, Hib CPS was fragmented using standard procedures as described in Vaccine, 2000, 18, 1982-1993: 1 mg Hib CPS in 0.43 mL of 0.1 M NaOH, 20 h. Fragments obtained after purification (filtered through 30 kDa Amicon filters followed by desalting) were analyzed by ^1H NMR, HPLC and HRMS.
The stability of dimer 16 was further investigated under aqueous basic conditions as applied in Example H-1. From the HPLC chromatogram in FIG. 13D it was concluded that dimer 16 got cleaved completely after 4 days, while the natural Hib CPS got already cleaved completely within 20 hours.
The stability of tetramer 29 was further investigated under aqueous basic conditions as applied in Example H-1. From the HPLC chromatogram in FIG. 13A it was concluded that tetramer 29 got cleaved completely after 4 days, while the natural Hib CPS got already cleaved completely within 20 hours.

[5] = Stability in presence of aluminum hydroxide (Alhydrogel), aluminum phosphate, phosphate buffer or water, HPLC; type: physicochemical; settings: for cleavage to smallest fragments observed after: Alhydrogel
Description: Having established the stability data of the control Hib CPS, then the stability of Hib CPS in aluminum hydroxide was investigated, where it is known to be unstable in a vaccine formulation {0.5 mg Hib CPS, 3 mL Alhydrogel® (Brentag) and 22 mL milli-Q water} at various temperatures {37° C. (A1) and rt (A3)}. At 37° C. cleavage to smallest fragments were observed after 2 days and at rt this pattern was observed after day 7 (FIG. 6). From this experiment it was confirmed that, Hib CPS decomposes to 2 and 3-O phosphate fragments in 2 to 7 days depending on temperature in Aluminum hydroxide the most common adjuvant used in commercial vaccines.
Stability studies of synthesized 2′-methoxyribosylribitolphosphate dimer 16 were conducted in presence of various adjuvants. As a first step stability of 16 was studied using Al(OH)3, AlPO4 and water at various temperatures {37° C. (A1), 2-8° C. (A2), rt (A3) and 70° C. (A4)}.
The amount of Al(OH)3 and AlPO4 used for this study was similar to the amount present in commercial Hib vaccines. Compounds 16 and 8 were used as reference since decomposition of dimer 16 should lead to monomer 8. Every 24 h 40 μL of solution was aliquoted from each vial and centrifuged for 4 min at 5000 rpm. Supernatant (25 μL) was taken for HPLC analysis. […] From this study it was clear that 2′-methoxyribosylribitol dimer 16 was stable at 37° C. (A1), 2-8° C. (A2), r.t. (A3) and at 70° C.
Stability studies of synthesized 2′-methoxyribosylribitolphosphate tetramer bearing a linker 29 were conducted in presence of various adjuvants. As a first step stability of 29 was studied using Al(OH)3, phosphate buffer (PBS) and water at various temperatures {2-8° C. (A2), and r.t. (A3)}.
The amount of Al(OH)3 used for this study was similar to the amount present in commercial Hib vaccines. Compounds 29, 16 and 8 were used as reference since decomposition of tetramer 29 should lead to dimer 16 and monomer 8. Every 24 h 40 μL of solution was aliquoted from each vial and centrifuged for 4 min at 5000 rpm. Supernatant (25 μL) was taken for HPLC analysis. […] From this study it was clear that 2′-methoxyribosylribitolphosphate tetramer 29 is stable in presence of Al(OH)3, in phosphate buffer (PBS) and in water at 2-8° C. (A2) and r.t. (A3).

Row | Compound | inhibition of binding by natural Hib PRP [1] | binding of anti-Hib antibodies to printed saccharide [1] | antibodies of the IgG and IgM subtypes against the saccharide after immunization with conjugate 94 [2] | inhibition of binding by natural Hib PRP [3] | binding of anti-Hib antibodies to printed saccharide [3] | cleaved completely after ([4]; HPLC) [days] | also measured
1 | COC1C(OP(=O)(O)OCCCCCN)[C@@H](CO)O[C@H]1OCC(O)C(O)C(O)COP(=O)(OCc1ccccc1)OC1C(OC)[C@H](OCC(O)C(O)C(O)CO)O[C@@H]1CO (stereo partly drawn) [Compound 24, 2′-methoxyribosylribitolphosphate dimer] | inhibits the binding | bind | detected | inhibits the binding | bind | – | –
2 | COC1C(O)[C@@H](CO)O[C@H]1OCC(O)C(O)C(O)COP(=O)(O)OC1C(OC)[C@H](OCC(O)C(O)C(O)CO)O[C@@H]1CO (stereo partly drawn) [Compound 16, 2′-methoxyribosylribitolphosphate dimer] | – | – | – | – | – | 4 | stability ([5]; Al(OH)3, AlPO4 and water, 2-8° C. (A2), 7 days): stable; stability ([5]; Al(OH)3, AlPO4 and water, 37° C. (A1), 7 days): stable; decomposition after 7 days (HPLC) ([5]; Al(OH)3, AlPO4 and water, 37° C., 2-8° C., rt and 70° C.): no decomposition was observed; stability ([5]; Al(OH)3, AlPO4 and water, 70° C., 7 days): stable; stability ([5]; Al(OH)3, AlPO4 and water, r.t. (A3), 7 days): stable
3 | Hib polyribosylribitolphosphate capsular polysaccharide [Hib CPS, reference compound] | – | – | detected | – | – | – | cleavage products in basic medium ([4]; 0.1 M NaOH, 20 h, 1H NMR, HPLC, HRMS): cleaved to its smallest 2 and 3-0 phosphate fragments; time to complete hydrolysis / cleavage under basic conditions ([4]; 0.1 M sodium hydroxide solution): ≤ 20 h; stability in basic aqueous media or in the presence of aluminum salts ([4]; basic aqueous media, suspensions with aluminum phosphate or aluminum hydroxide): hydrolyzes within one day; cleavage to smallest fragments observed after ([5]; 37° C.): 2 days; cleavage to smallest fragments observed after ([5]; rt): 7 days
4 | COC1C(O)[C@@H](CO)O[C@H]1OCC(O)C(O)C(O)COP(=O)(O)OC1C(OC)[C@H](OCC(O)C(O)C(O)COP(=O)(O)OCCCCCN)O[C@@H]1CO (stereo partly drawn) [Compound 19, 2′-Methoxyribosylribitolphosphate dimer] | inhibits the binding | bind | detected | inhibits the binding | bind | – | –
5 | 2′-Methoxyribosylribitolphosphate tetramer [Compound 29] | inhibits the binding | bind | detected | inhibits the binding | bind | 4 | stability ([5]; Al(OH)3, phosphate buffer (PBS) and water, 2-8° C. (A2)): stable; decomposition after 7 days (HPLC) ([5]; Al(OH)3, phosphate buffer (PBS) and water, 2-8° C. and r.t.): no decomposition was observed; stability ([5]; Al(OH)3, phosphate buffer (PBS) and water, r.t. (A3)): stable
6 | 2′-deoxyribosylribitolphosphate tetramer [Compound 53] | not | bind | detected | not | bind | – | –
